# Laboratory results reported in patent US10294202B2, “Pyrrolidinones as herbicides” (FMC Corporation, priority 2013, dated 2019).
# Experiments:
# [1] = system: velvetleaf; assay: Test A pre-/postemergence herbicide test; format: in vivo, Abutilon theophrasti
# In short: (§1)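 Directed soil spray to seeded pots (preemergence) or spray onto one- to two-leaf seedlings 2–10 cm tall (postemergence); loam/sand substrate throughout. Evaluated visually after about 10 days against untreated plants, 0 = no effect, 100 = complete control.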
# [2] = system: morningglory; assay: Test A pre-/postemergence herbicide test; format: in vivo, Ipomoea spp.
# In short: as §1
# [3] = system: corn; assay: Test A pre-/postemergence herbicide test; format: in vivo, Zea mays
# In short: as §1
# [4] = system: wheat; assay: Test A pre-/postemergence herbicide test; format: in vivo, Triticum aestivum
# In short: as §1
# [5] = system: ducksalad; assay: Test B flooded paddy test; format: in vivo, Heteranthera limosa; conditions: Flood, scale of 0 to 100 where 0 is no effect and 100 is complete control
# In short: (§2)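 Plants were grown to the 2-leaf stage, then pots were flooded to 3 cm above the soil and compound was applied directly into the paddy water, with that depth held throughout. After 13 to 15 days in a greenhouse, injury was rated visually against untreated controls on a 0 to 100 scale (100 = complete control).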
# [6] = system: giant foxtail; assay: Test A pre-/postemergence herbicide test; format: in vivo, Setaria faberii
# In short: as §1
# [7] = system: sedge, umbrella; assay: Test B flooded paddy test; format: in vivo, Cyperus difformis; conditions: Flood, scale of 0 to 100 where 0 is no effect and 100 is complete control
# In short: as §2
# [8] = system: rice; assay: Test B flooded paddy test; format: in vivo, Oryza sativa; conditions: Flood, scale of 0 to 100 where 0 is no effect and 100 is complete control
# In short: as §2
# [9] = system: barnyardgrass; assay: Test A pre-/postemergence herbicide test; format: in vivo, Echinochloa crus-galli
# In short: as §1
# [10] = system: barnyardgrass; assay: Test B flooded paddy test; format: in vivo, Echinochloa crus-galli; conditions: Flood, scale of 0 to 100 where 0 is no effect and 100 is complete control
# In short: as §2
# [11] = system: crabgrass, large; assay: Test A pre-/postemergence herbicide test; format: in vivo, Digitaria sanguinalis
# In short: as §1
# [12] = system: pigweed; assay: Test A pre-/postemergence herbicide test; format: in vivo, Amaranthus retroflexus
# In short: as §1
# [13] = Postemergence, 125 g ai/ha, 0 to 100 scale, 0 no effect, 100 complete control
# [14] = Postemergence, 500 g ai/ha, 0 to 100 scale (0 no effect, 100 complete control)
# [15] = Preemergence, 125 g ai/ha, visual rating on 0 to 100 scale (0 no effect, 100 complete control)
# [16] = preemergence, 500 g ai/ha, 0 to 100 scale
# [17] = preemergence, 500 g ai/ha, 0 to 100 scale (0 no effect, 100 complete control)
# [18] = Postemergence, 1000 g ai/ha, 0 to 100 scale (0 no effect, 100 complete control)
# [19] = Preemergence, 1000 g ai/ha, visual rating on 0 to 100 scale (0 no effect, 100 complete control), approx. 10 days
# [20] = preemergence, 500 g ai/ha, 0 to 100 scale, 0 is no effect and 100 is complete control
# [21] = Postemergence, 125 g ai/ha, 0 to 100 scale, 0 is no effect, 100 is complete control
# [22] = Preemergence, 125 g ai/ha, 0 to 100 scale where 0 is no effect and 100 is complete control
# [23] = 125 g ai/ha, visual rating, 0 to 100 scale, 0 no effect, 100 complete control, approximately 10 days, preemergence
smiles,measurement,setting,value
CC1(C(=O)Nc2cccc(F)c2F)C(=O)NCC1c1ccc(F)c(Cl)c1 (stereo not shown) [Compound 61],"Plant response rating, Velvetleaf",[1]; [13],0
same,"Plant response rating, Velvetleaf",[1]; [14],0
same,Velvetleaf plant response rating,[1]; [15],0
same,"Plant response rating, Velvetleaf",[1]; [16],0
same,"Plant response rating, Morningglory",[2]; [13],0
same,"Plant response rating, Morningglory",[2]; [14],0
same,Morningglory plant response rating,[2]; [15],0
same,"Plant response rating, Morningglory",[2]; [16],0
same,"Plant response rating, Corn",[3]; [13],0
same,"Plant response rating, Corn",[3]; [14],0
same,Corn plant response rating,[3]; [15],0
same,"Plant response rating, Corn",[3]; [16],0
same,"Plant response rating, Wheat",[4]; [13],0
same,"Plant response rating, Wheat",[4]; [14],0
same,Wheat plant response rating,[4]; [15],0
same,"Plant response rating, Wheat",[4]; [16],0
same,"Plant response rating, Ducksalad",[5]; 250 g ai/ha,0
same,"Plant response rating, Foxtail, Giant",[6]; [13],0
same,"Plant response rating, Foxtail, Giant",[6]; [14],30
same,"Foxtail, Giant plant response rating",[6]; [15],0
same,"Plant response rating, Foxtail, Giant",[6]; [16],0
same,"Plant response rating, Sedge, Umbrella",[7]; 250 g ai/ha,30
same,"Plant response rating, Rice",[8]; 250 g ai/ha,0
same,"Plant response rating, Barnyardgrass",[9]; [13],0
same,"Plant response rating, Barnyardgrass",[9]; [14],20
same,Barnyardgrass plant response rating,[9]; [15],0
same,"Plant response rating, Barnyardgrass",[9]; [17],0
same,"Plant response rating, Barnyardgrass",[10]; 250 g ai/ha,0
same,"Plant response rating, Crabgrass, Large",[11]; [13],0
same,"Plant response rating, Crabgrass, Large",[11]; [14],70
same,"Crabgrass, Large plant response rating",[11]; [15],0
same,"Plant response rating, Crabgrass, Large",[11]; [16],80
same,"Plant response rating, Pigweed",[12]; [13],0
same,"Plant response rating, Pigweed",[12]; [14],0
same,Pigweed plant response rating,[12]; [15],0
same,"Plant response rating, Pigweed",[12]; [16],0
O=C1NCC(c2ccc(Cl)c(Cl)c2)C1C(=O)Nc1ccccc1[N+](=O)[O-] (stereo not shown) [Compound 39],"Plant response rating, Velvetleaf",[1]; [18],10
same,"Plant response rating, Velvetleaf",[1]; [19],0
same,"Plant response rating, Morningglory",[2]; [18],10
same,"Plant response rating, Morningglory",[2]; [19],0
same,"Plant response rating, Corn",[3]; [18],0
same,"Plant response rating, Corn",[3]; [19],0
same,"Plant response rating, Wheat",[4]; [18],40
same,"Plant response rating, Wheat",[4]; [19],0
same,"Plant response rating, Ducksalad",[5]; 250 g ai/ha,0
same,"Plant response rating, Foxtail, Giant",[6]; [18],70
same,"Plant response rating, Foxtail, Giant",[6]; [19],80
same,"Plant response rating, Sedge, Umbrella",[7]; 250 g ai/ha,0
same,"Plant response rating, Rice",[8]; 250 g ai/ha,0
same,"Plant response rating, Barnyardgrass",[9]; [18],50
same,"Plant response rating, Barnyardgrass",[9]; [19],70
same,"Plant response rating, Barnyardgrass",[10]; 250 g ai/ha,0
same,"Plant response rating, Crabgrass, Large",[11]; [18],80
same,"Plant response rating, Crabgrass, Large",[11]; [19],90
same,"Plant response rating, Pigweed",[12]; [18],50
same,"Plant response rating, Pigweed",[12]; [19],0
O=C1NCC(c2ccc(C(F)(F)F)cc2F)C1C(=O)Nc1cccc(F)c1F (racemic) [Compound 260],"Plant response rating, Velvetleaf",[1]; [20],40
same,"Plant response rating, Morningglory",[2]; [21],0
same,"Plant response rating, Morningglory",[2]; [14],50
same,"Plant response rating, Morningglory",[2]; [22],20
same,"Plant response rating, Morningglory",[2]; [20],50
same,"Plant response rating, Corn",[3]; [21],0
same,"Plant response rating, Corn",[3]; [14],0
same,"Plant response rating, Corn",[3]; [22],0
same,"Plant response rating, Corn",[3]; [20],10
same,"Plant response rating, Wheat",[4]; [21],0
same,"Plant response rating, Wheat",[4]; [14],0
same,"Plant response rating, Wheat",[4]; [22],0
same,"Plant response rating, Wheat",[4]; [20],0
same,"Plant response rating, Ducksalad",[5]; 1000 g ai/ha,95
same,"Plant response rating, Foxtail, Giant",[6]; [21],80
same,"Plant response rating, Foxtail, Giant",[6]; [14],90
same,"Plant response rating, Foxtail, Giant",[6]; [22],80
same,"Plant response rating, Foxtail, Giant",[6]; [20],90
same,"Plant response rating, Sedge, Umbrella",[7]; 1000 g ai/ha,0
same,"Plant response rating, Rice",[8]; 1000 g ai/ha,0
same,"Plant response rating, Barnyardgrass",[9]; [21],70
same,"Plant response rating, Barnyardgrass",[9]; [14],80
same,"Plant response rating, Barnyardgrass",[9]; [22],70
same,"Plant response rating, Barnyardgrass",[9]; [20],80
same,"Plant response rating, Barnyardgrass",[10]; 1000 g ai/ha,0
same,"Plant response rating, Crabgrass, Large",[11]; [21],90
same,"Plant response rating, Crabgrass, Large",[11]; [14],90
same,"Plant response rating, Crabgrass, Large",[11]; [22],90
same,"Plant response rating, Crabgrass, Large",[11]; [20],90
same,"Plant response rating, Pigweed",[12]; [21],60
same,"Plant response rating, Pigweed",[12]; [14],70
same,"Plant response rating, Pigweed",[12]; [22],60
same,"Plant response rating, Pigweed",[12]; [20],80
O=C1NCC(c2ccccc2)C1C(=O)Nc1ccc(Br)cc1F (racemic) [Compound 84],"Plant response rating, Velvetleaf",[1]; [13],0
same,"Plant response rating, Velvetleaf",[1]; [14],0
same,Velvetleaf plant response rating,[1]; [15],0
same,"Plant response rating, Velvetleaf",[1]; [16],0
same,"Plant response rating, Morningglory",[2]; [13],0
same,"Plant response rating, Morningglory",[2]; [14],0
same,Morningglory plant response rating,[2]; [15],0
same,"Plant response rating, Morningglory",[2]; [16],0
same,"Plant response rating, Corn",[3]; [13],0
same,"Plant response rating, Corn",[3]; [14],0
same,Corn plant response rating,[3]; [15],0
same,"Plant response rating, Corn",[3]; [16],0
same,"Plant response rating, Wheat",[4]; [13],0
same,"Plant response rating, Wheat",[4]; [14],0
same,Wheat plant response rating,[4]; [15],0
same,"Plant response rating, Wheat",[4]; [16],0
same,"Plant response rating, Ducksalad",[5]; 250 g ai/ha,0
same,"Plant response rating, Foxtail, Giant",[6]; [13],0
same,"Plant response rating, Foxtail, Giant",[6]; [14],0
same,"Foxtail, Giant plant response rating",[6]; [15],0
same,"Plant response rating, Foxtail, Giant",[6]; [16],0
same,"Plant response rating, Sedge, Umbrella",[7]; 250 g ai/ha,0
same,"Plant response rating, Rice",[8]; 250 g ai/ha,0
same,"Plant response rating, Barnyardgrass",[9]; [13],0
same,"Plant response rating, Barnyardgrass",[9]; [14],0
same,Barnyardgrass plant response rating,[9]; [15],0
same,"Plant response rating, Barnyardgrass",[9]; [17],0
same,"Plant response rating, Barnyardgrass",[10]; 250 g ai/ha,0
same,"Plant response rating, Crabgrass, Large",[11]; [13],0
same,"Plant response rating, Crabgrass, Large",[11]; [14],20
same,"Crabgrass, Large plant response rating",[11]; [15],0
same,"Plant response rating, Crabgrass, Large",[11]; [16],50
same,"Plant response rating, Pigweed",[12]; [13],0
same,"Plant response rating, Pigweed",[12]; [14],0
same,Pigweed plant response rating,[12]; [15],0
same,"Plant response rating, Pigweed",[12]; [16],0
O=C1NCC(c2ccc3ccccc3c2)C1C(=O)Nc1cccc(F)c1F (racemic) [Compound 116],"Plant response rating, Velvetleaf",[1]; [23],0
same,"Plant response rating, Velvetleaf",[1]; [13],0
same,"Velvetleaf plant response rating (0 to 100 scale, 0 is no effect, 100 is complete control)","[1]; Postemergence, 500 g ai/ha",0
same,"Plant response rating, Velvetleaf",[1]; [16],0
same,"Plant response rating, Morningglory",[2]; [23],0
same,"Plant response rating, Morningglory",[2]; [13],0
same,"Morningglory plant response rating (0 to 100 scale, 0 is no effect, 100 is complete control)","[2]; Postemergence, 500 g ai/ha",0
same,"Plant response rating, Morningglory",[2]; [16],0
same,"Plant response rating, Corn",[3]; [23],0
same,"Plant response rating, Corn",[3]; [13],0
same,"Plant response rating, Corn",[3]; [14],20
same,"Plant response rating, Corn",[3]; [16],0
same,"Plant response rating, Wheat",[4]; [23],0
same,"Plant response rating, Wheat",[4]; [13],0
same,"Wheat plant response rating (0 to 100 scale, 0 is no effect, 100 is complete control)","[4]; Postemergence, 500 g ai/ha",0
same,"Plant response rating, Wheat",[4]; [16],0
same,"Plant response rating, Ducksalad",[5]; 1000 g ai/ha,80
same,"Plant response rating, Foxtail, Giant",[6]; [23],0
same,"Plant response rating, Foxtail, Giant",[6]; [13],0
same,"Foxtail, Giant plant response rating (0 to 100 scale, 0 is no effect, 100 is complete control)","[6]; Postemergence, 500 g ai/ha",20
same,"Plant response rating, Foxtail, Giant",[6]; [16],30
same,"Plant response rating, Sedge, Umbrella",[7]; 1000 g ai/ha,0
same,"Plant response rating, Rice",[8]; 1000 g ai/ha,15
same,"Plant response rating, Barnyardgrass",[9]; [23],0
same,"Plant response rating, Barnyardgrass",[9]; [14],40
same,"Plant response rating, Barnyardgrass",[9]; [17],50
same,"Plant response rating, Barnyardgrass",[10]; 1000 g ai/ha,20
same,"Plant response rating, Crabgrass, Large",[11]; [23],70
same,"Plant response rating, Crabgrass, Large",[11]; [13],20
same,"Crabgrass, Large plant response rating (0 to 100 scale, 0 is no effect, 100 is complete control)","[11]; Postemergence, 500 g ai/ha",30
same,"Plant response rating, Crabgrass, Large",[11]; [16],80
same,"Plant response rating, Pigweed",[12]; [23],0
same,"Plant response rating, Pigweed",[12]; [13],0
same,"Pigweed plant response rating (0 to 100 scale, 0 is no effect, 100 is complete control)","[12]; Postemergence, 500 g ai/ha",0
same,"Plant response rating, Pigweed",[12]; [16],0
